Laboratory results reported in paper PMC11048033, “Dual Anti-Inflammatory and Anticancer Activity of Novel 1,5-Diaryl Pyrazole Derivatives: Molecular Modeling, Synthesis, In Vitro Activity, and Dynamics Study” (Biomedicines, 2024).

Biological target: T1, Human COX-2 (Homo sapiens, UniProt P35354)
T1 construct: purchased Cayman Chemicals 701230
T1 sequence (P35354 18-604): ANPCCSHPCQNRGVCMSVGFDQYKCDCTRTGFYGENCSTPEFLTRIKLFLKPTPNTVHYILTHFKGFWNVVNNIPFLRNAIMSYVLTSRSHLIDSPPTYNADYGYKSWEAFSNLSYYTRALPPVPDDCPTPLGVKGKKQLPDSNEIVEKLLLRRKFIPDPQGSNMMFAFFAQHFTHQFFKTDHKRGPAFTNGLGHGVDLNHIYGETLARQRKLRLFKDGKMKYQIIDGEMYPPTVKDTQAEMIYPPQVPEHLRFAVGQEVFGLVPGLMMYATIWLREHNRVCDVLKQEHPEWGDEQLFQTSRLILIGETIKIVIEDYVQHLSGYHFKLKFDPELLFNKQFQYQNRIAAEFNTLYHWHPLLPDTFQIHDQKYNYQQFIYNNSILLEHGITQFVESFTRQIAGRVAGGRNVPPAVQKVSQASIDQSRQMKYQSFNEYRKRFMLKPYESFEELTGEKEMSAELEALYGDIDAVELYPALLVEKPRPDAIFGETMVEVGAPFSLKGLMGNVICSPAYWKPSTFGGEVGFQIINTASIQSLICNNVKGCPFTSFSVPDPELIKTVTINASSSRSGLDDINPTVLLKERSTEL
Experiment: In vitro COX-2 enzymatic assay (Cayman COX (human) Inhibitor Screening Assay Kit)
Assay type: biochemical
Method: The ability of the compounds to inhibit COX -2 (IC50 values, µM) was determined by using a “COX (human) Inhibitor Screening Assay Kit” procured from Cayman Chemicals (catalog number 701230). With a slight modification in the method as defined in the reference, the COX-2 inhibition assay was performed. Using the percent conversion of arachidonic acid (AA) to PGH2, the enzyme activity was calculated. By enzyme immunoassay PGF2α, which is produced from PGH2 by reduction with stannous chloride, is calculated. The test compounds’ stock solutions are prepared by dissolving in a minimum amount of DMSO. Human COX-2 (10 µL) in the presence of 10 µL of heme was suspended in 0.1M Tris-HCl buffer (pH 8.0) which contains 2 mM phenol and 5 mM EDTA. This was added to various concentrations of test compounds and, on incubating the solutions at 37 °C for 5 min, 10 µL of AA solution were added. Later, the COX reaction was stopped by adding 1M HCl (50 µL) after 2 min. The intensity of the yellow color which is produced as the product of the enzymatic reaction is determined spectrophotometrically. The percent inhibition was calculated by comparing the compound treated to different control incubations. […] The determinations are done in triplicate and the IC50 (µM) was determined using the concentration–inhibition response curve.
During the initiation of the inflammatory process, the COX enzyme plays a vital role in the progression of inflammatory response. The inflammatory mediators that arise due to the action of COX lead to the chemoattraction of neutrophils, macrophages, eosinophils, etc. […] This was carried out with the help of a COX (human) inhibitor screening assay kit (Item no. 701230) from Cayman chemicals. […] A test substance concentration was considered to be inhibitive when it inhibited human COX-1 or COX-2 by 50%. The compound’s selectivity was measured by its selectivity index values, derived as IC50 (COX-1)/IC50 (COX-2).

SMILES | % COX-2 Inhibition (0.781 μg/ml) | % COX-2 Inhibition (1.562 μg/ml) | % COX-2 Inhibition (3.125 μg/ml) | % COX-2 Inhibition (6.25 μg/ml) | % COX-2 Inhibition (12.5 μg/ml) | % COX-2 Inhibition (25 μg/ml) | % COX-2 Inhibition (50 μg/ml) | % COX-2 Inhibition (100 μg/ml) | % COX-2 Inhibition (250 μg/ml) | Selectivity Index
NS(=O)(=O)c1ccc(-n2nc(C(=O)NN=Cc3cccc(Oc4ccccc4)c3)cc2-c2ccc(Cl)cc2)cc1 [Compound T3, 4-(5-(4-chlorophenyl)-3-(2-(3-phenoxybenzylidene) hydrazine-1-carbonyl)-1H-pyrazol-1-yl) benzenesulfonamide] | 55.34 ± 1.03% | 61.82 ± 1.20% | 66.67 ± 0.96% | 71.48 ± 0.78% | 73.95 ± 0.27% | 76.28 ± 0.70% | 78.94 ± 0.72% | 81.06 ± 0.47% | 85.38 ± 0.73% | –
Cc1cc(C=NNC(=O)c2cc(-c3ccc(Br)cc3)n(-c3ccc(S(N)(=O)=O)cc3)n2)cc(C)c1OCc1ccccc1 [Compound T5, 4-(3-(2-(4-(benzyloxy)-3,5-dimethylbenzylidene) hydrazine-1-carbonyl)-5-(4-bromophenyl)-1H-pyrazol-1-yl) benzenesulfonamide] | 65.66 ± 1.05% | 72.1 ± 6.01% | 78.03 ± 2.98% | 84.28 ± 2.50% | 85.04 ± 2.38% | 86.71 ± 0.50% | 87.64 ± 1.43% | 88.64 ± 0.86% | 89.35 ± 0.86% | 7.16
